# Data: patent EP0354453A2, “Antimicrobial agent for animals” (priority 1988, dated 1990)
# Key:
# [1] = system: Escherichia coli 442; experiment: in vitro antimicrobial activity (MIC), agar dilution, Part 1; type: cell-based; settings: Escherichia coli 442, Chicken; Mueller Hinton agar, 37°C, 18-24 hours
# Experimental: (§1) Test microorganisms listed in Table 2 were cultured overnight in heart infusion nutrient broth (produced by Eiken Chemical Co., Ltd.). Culture broth containing about 10⁸/ml cells was diluted to a volume of 100 times. An aliquot (about 0.05 ml) of the diluted broth was inoculated onto a Mueller Hinton agar plate (produced by Eiken Chemical Co., Ltd.) to which Compound No. 1 was added in a prescribed concentration. […]
# [2] = system: Salmonella typhimurium 101; experiment: as above; type: cell-based; settings: Salmonella enterica; Salmonella typhimurium 101, Chicken; Mueller Hinton agar, 37°C, 18-24 hours
# Experimental: as §1
# [3] = system: Escherichia coli 164; experiment: as above; type: cell-based; settings: Escherichia coli 164, Pig; Mueller Hinton agar, 37°C, 18-24 hours
# Experimental: as §1
# [4] = system: Staphylococcus aureus Aichi 2; experiment: as above; type: cell-based; settings: AICHI2; Staphylococcus aureus Aichi 2, Chicken; Mueller Hinton agar, 37°C, 18-24 hours
# Experimental: as §1
# [5] = system: Salmonella typhimurium 595; experiment: as above; type: cell-based; settings: Salmonella enterica; Salmonella typhimurium 595, Pig; Mueller Hinton agar, 37°C, 18-24 hours
# Experimental: as §1
# [6] = system: Escherichia coli 15-4; experiment: as above; type: cell-based; settings: 154; Escherichia coli 15-4, Cow; Mueller Hinton agar, 37°C, 18-24 hours
# Experimental: as §1
# [7] = system: Bordetella bronchiaseptica AR3; experiment: as above; type: cell-based; settings: Bordetella bronchiaseptica AR3, Pig; Mueller Hinton agar, 37°C, 18-24 hours
# Experimental: as §1
# [8] = system: Mycoplasma gallisepticum; experiment: Effect of oral administration on chicken inoculated with Mycoplasma gallisepticum; type: in vivo; settings: for Chickens developing disease in air sac (naked eye observation) / No. of dead chickens: 5 tested chickens
# Experimental: Mycoplasma gallisepticum cells collected from chickens having respiratory Mycoplasma infection were cultured for 3 days in a Frey liquid media for Mycoplasma. 0.2 ml of this culture broth was injected into the trachea of chickens of an average body weight of 80 g using a 1 ml disposable injection needle. Beginning from the next day following the inoculation, feeds to which Compound (1) had been added in the amount of 100 ppm, 75 ppm, or 50 ppm were freely given to the chickens for 5 days. Following the administration of Compound (1) the chickens were given feed containing no drug for a further 5 days. The surviving chickens were sacrificed and dissected. After examination of the degree of disease in the air sac, Mycoplasma gallisepticum in the infraorbital sinus, trachea, lung, and air sac were determined. […] TABLE 6 […]
# [9] = system: Escherichia coli; experiment: Effect of oral administration on chicken inoculated with Escherichia coli; type: in vivo; settings: for Chickens developing disease in air sac (naked eye observation) / No. of dead chickens: 5 tested chickens
# Experimental: Escherichia coli cells collected from infected chicken were cultured overnight in a trypticase soy broth (BBL). 0.2 ml of this culture broth was injected into the trachea of chickens of average body weight of 80 g using a 1 ml disposable injection needle. Beginning 2 hours after the inoculation, feeds to which Compound (1) had been added in the amount of 50 ppm, 25 ppm, or 12.5 ppm were freely given to the chickens for 5 days. Following the administration of Compound (1) the chickens were given feed with no addition of drug for 5 days. The surviving chickens were sacrificed and dissected. After examination of the degree of disease in the air sac, Escherichia coli in the trachea, lung, and air sac were quantitatively determined. […]
# [10] = system: Escherichia coli S6W; experiment: in vitro antimicrobial activity (MIC), agar dilution, Part 2; type: cell-based; settings: Escherichia coli, S6W, Escherichia coli S6W, Chicken; read-out: MIC
# Experimental: as §1
# (§2) MIC of Compounds (1)-(8) against various pathogenic bacteria derived from animals was determined in the same manner as in Example 1.
# [11] = system: Bordetella bronchiaseptica OKM-1; experiment: as above; type: cell-based; settings: Bordetella, OKM1, Bordetella bronchiaseptica OKM-1, Pig; read-out: MIC
# Experimental: as §1, §2
# [12] = system: Escherichia coli 881; experiment: as above; type: cell-based; settings: Escherichia coli, 881, Escherichia coli 881, Pig; read-out: MIC
# Experimental: as §1, §2
# [13] = system: Salmonella typhimurium 103; experiment: as above; type: cell-based; settings: Salmonella enterica; Salmonella typhimurium 103, Chicken; read-out: MIC
# Experimental: as §1, §2
# [14] = system: Staphylococcus aureus Yamaguchi 6; experiment: as above; type: cell-based; settings: Staphylococcus aureus Yamaguchi 6, Chicken; read-out: MIC
# Experimental: as §1, §2
# [15] = system: Salmonella typhimurium 569; experiment: as above; type: cell-based; settings: Salmonella enterica, TYPHIMURIUM, Salmonella typhimurium 569, Pig; read-out: MIC
# Experimental: as §1, §2
# [16] = system: Escherichia coli 139; experiment: as above; type: cell-based; settings: Escherichia coli 139, Cow; read-out: MIC
# Experimental: as §1, §2
# [17] = system: Pasteurella multocida DB-12-1; experiment: as above; type: cell-based; settings: DB121; Pasteurella multocida DB-12-1, Pig; read-out: MIC
# Experimental: as §1, §2
# [18] = Acute toxicity test, intravenous injection; type: in vivo
# Experimental: Representative test compounds, Compounds (2) and (3), were intravenously injected to mice. No fatality occurred at a dose of 200 mg/kg (10 mice/group), for Compound (2), and a dose of 200 mg/kg (6 mice/group), for Compound (3). From the results, the LD₅₀ values of the compounds are considered to be greater than 200 mg/kg.
# [19] = system: Mycoplasma gallisepticum Strain 2012; experiment: in vitro antimicrobial activity (MIC) in Frey liquid medium; type: cell-based; settings: Mycoplasmoides gallisepticum, STRAIN2012; Mycoplasma gallisepticum Strain 2012, from chicken; Frey liquid medium, 37°C, 3-5 days; read-out: MIC
# Experimental: (§3) Various test strains of Mycoplasma gallisepticum derived from chicken were cultured in a Frey liquid medium for Mycoplasma for 3 days. The culture broth containing about 10⁸/ml cells was diluted to a volume of 100 times. The diluted broth was inoculated into Frey liquid media for Mycoplasma to which the compounds of this invention were added at prescribed concentrations. The cells were incubated at 37°C for 3-5 days while daily observing the color of the media. Among the culture broths maintaining yellow color at the time when the control to which no test compound was added turned red, the concentration of the broth having the minimum concentration was taken as the MIC of the compound.
# [20] = system: Mycoplasma gallisepticum Strain DP-1047; experiment: as above; type: cell-based; settings: Mycoplasmoides gallisepticum; Mycoplasma gallisepticum Strain DP-1047, from chicken; Frey liquid medium, 37°C, 3-5 days; read-out: MIC
# Experimental: as §3
# [21] = system: Mycoplasma gallisepticum Strain T-7; experiment: as above; type: cell-based; settings: Mycoplasmoides gallisepticum, Mycoplasma gallisepticum Strain T-7, from chicken, 37°C, 3-5 days
# Experimental: as §3
# [22] = system: Mycoplasma gallisepticum Strain T-2; experiment: as above; type: cell-based; settings: Mycoplasmoides gallisepticum; Mycoplasma gallisepticum Strain T-2, from chicken; Frey liquid medium, 37°C, 3-5 days; read-out: MIC
# Experimental: as §3
# [23] = system: Mycoplasma gallisepticum Strain 2004; experiment: as above; type: cell-based; settings: Mycoplasmoides gallisepticum, STRAIN2004; Mycoplasma gallisepticum Strain 2004, from chicken; Frey liquid medium, 37°C, 3-5 days; read-out: MIC
# Experimental: as §3
structure (smiles),measurement,setting,value
"CC1COc2c(N3CCN(C)CC3)c(F)cc3c(=O)c(C(=O)O)cn1c23 (racemic) [Ofloxacin, reference compound]",MIC,[1],0.05 µg/mL
same,MIC,[2],0.05 µg/mL
same,MIC,[3],0.1 µg/mL
same,MIC,[4],0.2 µg/mL
same,MIC,[5],0.1 µg/mL
same,MIC,[6],0.1 µg/mL
same,MIC,[7],0.39 µg/mL
same,Mycoplasma gallisepticum collected in Air sac,[8]; 50 ppm in feed for 5 days,3.70 Logarithmic number of collected cells per 1 g of tissue
same,Mycoplasma gallisepticum collected in Infraorbital sinus,[8]; 50 ppm in feed for 5 days,1/5
same,Mycoplasma gallisepticum collected in Lung,[8]; 50 ppm in feed for 5 days,4.78 Logarithmic number of collected cells per 1 g of tissue
same,Mycoplasma gallisepticum collected in Trachea,[8]; 50 ppm in feed for 5 days,3.64 Logarithmic number of collected cells per 1 g of tissue
same,Chickens developing disease in air sac (naked eye observation),[8]; 50 ppm in feed for 5 days,1
same,No. of dead chickens,[8]; 50 ppm in feed for 5 days,0
same,Mycoplasma gallisepticum collected in Air sac,[8]; 75 ppm in feed for 5 days,0 Logarithmic number of collected cells per 1 g of tissue
same,Mycoplasma gallisepticum collected in Infraorbital sinus,[8]; 75 ppm in feed for 5 days,0/5
same,Mycoplasma gallisepticum collected in Lung,[8]; 75 ppm in feed for 5 days,4.00 Logarithmic number of collected cells per 1 g of tissue
same,Mycoplasma gallisepticum collected in Trachea,[8]; 75 ppm in feed for 5 days,3.82 Logarithmic number of collected cells per 1 g of tissue
same,Chickens developing disease in air sac (naked eye observation),[8]; 75 ppm in feed for 5 days,0
same,No. of dead chickens,[8]; 75 ppm in feed for 5 days,0
same,Mycoplasma gallisepticum collected in Air sac,[8]; 100 ppm in feed for 5 days,0 Logarithmic number of collected cells per 1 g of tissue
same,Mycoplasma gallisepticum collected in Infraorbital sinus,[8]; 100 ppm in feed for 5 days,0/5
same,Mycoplasma gallisepticum collected in Lung,[8]; 100 ppm in feed for 5 days,0 Logarithmic number of collected cells per 1 g of tissue
same,Mycoplasma gallisepticum collected in Trachea,[8]; 100 ppm in feed for 5 days,0 Logarithmic number of collected cells per 1 g of tissue
same,Chickens developing disease in air sac (naked eye observation),[8]; 100 ppm in feed for 5 days,0
same,No. of dead chickens,[8]; 100 ppm in feed for 5 days,0
same,Escherichia coli collected in Air sac,[9]; 12.5 ppm in feed for 5 days,4.20 Logarithmic number of collected cells per 1 g of tissue
same,Escherichia coli collected in Lung,[9]; 12.5 ppm in feed for 5 days,5.26 Logarithmic number of collected cells per 1 g of tissue
same,Escherichia coli collected in Trachea,[9]; 12.5 ppm in feed for 5 days,7.48 Logarithmic number of collected cells per 1 g of tissue
same,Chickens developing disease in air sac (naked eye observation),[9]; 12.5 ppm in feed for 5 days,3
same,No. of dead chickens,[9]; 12.5 ppm in feed for 5 days,2
same,Escherichia coli collected in Air sac,[9]; 25 ppm in feed for 5 days,3.90 Logarithmic number of collected cells per 1 g of tissue
same,Escherichia coli collected in Lung,[9]; 25 ppm in feed for 5 days,1.86 Logarithmic number of collected cells per 1 g of tissue
same,Escherichia coli collected in Trachea,[9]; 25 ppm in feed for 5 days,4.58 Logarithmic number of collected cells per 1 g of tissue
same,Chickens developing disease in air sac (naked eye observation),[9]; 25 ppm in feed for 5 days,3
same,No. of dead chickens,[9]; 25 ppm in feed for 5 days,1
same,Escherichia coli collected in Air sac,[9]; 50 ppm in feed for 5 days,0 Logarithmic number of collected cells per 1 g of tissue
same,Escherichia coli collected in Lung,[9]; 50 ppm in feed for 5 days,0 Logarithmic number of collected cells per 1 g of tissue
same,Escherichia coli collected in Trachea,[9]; 50 ppm in feed for 5 days,0 Logarithmic number of collected cells per 1 g of tissue
same,Chickens developing disease in air sac (naked eye observation),[9]; 50 ppm in feed for 5 days,2
same,No. of dead chickens,[9]; 50 ppm in feed for 5 days,1
"CCN1CCN(c2c(F)cc3c(=O)c(C(=O)O)cn4c3c2OCC4C)CC1 (racemic) [Compound (2), 3(RS)-9-fluoro-2,3-dihydro-3-methyl-10-(4-ethyl-1-piperazinyl)-7-oxo-7H-pyrido[1,2,3-de] [1,4]benzoxazine-6-carboxylic acid]",MIC,[10],0.1 µg/mL
same,MIC,[11],0.2 µg/mL
same,MIC,[12],0.1 µg/mL
same,MIC,[13],0.2 µg/mL
same,MIC,[14],0.39 µg/mL
same,MIC,[15],0.1 µg/mL
same,MIC,[16],0.2 µg/mL
same,MIC,[17],0.05 µg/mL
same,fatality,"[18]; mice, intravenously injected, dose of 200 mg/kg",No fatality
same,LD50,"[18]; mouse, in vivo, iv",> 200 mg/kg
same,MIC,[19],0.025 µg/mL
same,MIC,[20],0.1 µg/mL
same,MIC,[21],0.1 µg/mL
same,MIC,[22],0.1 µg/mL
same,MIC,[23],0.025 µg/mL
same,Mycoplasma gallisepticum collected in Air sac,[8]; 50 ppm in feed for 5 days,2.08 Logarithmic number of collected cells per 1 g of tissue
same,Mycoplasma gallisepticum collected in Infraorbital sinus,[8]; 50 ppm in feed for 5 days,0/5
same,Mycoplasma gallisepticum collected in Lung,[8]; 50 ppm in feed for 5 days,2.43 Logarithmic number of collected cells per 1 g of tissue
same,Mycoplasma gallisepticum collected in Trachea,[8]; 50 ppm in feed for 5 days,2.96 Logarithmic number of collected cells per 1 g of tissue
same,Chickens developing disease in air sac (naked eye observation),[8]; 50 ppm in feed for 5 days,0
same,No. of dead chickens,[8]; 50 ppm in feed for 5 days,0
same,Mycoplasma gallisepticum collected in Air sac,[8]; 75 ppm in feed for 5 days,0 Logarithmic number of collected cells per 1 g of tissue
same,Mycoplasma gallisepticum collected in Infraorbital sinus,[8]; 75 ppm in feed for 5 days,0/5
same,Mycoplasma gallisepticum collected in Lung,[8]; 75 ppm in feed for 5 days,0 Logarithmic number of collected cells per 1 g of tissue
same,Mycoplasma gallisepticum collected in Trachea,[8]; 75 ppm in feed for 5 days,0 Logarithmic number of collected cells per 1 g of tissue
same,Chickens developing disease in air sac (naked eye observation),[8]; 75 ppm in feed for 5 days,0
same,No. of dead chickens,[8]; 75 ppm in feed for 5 days,0
same,Mycoplasma gallisepticum collected in Air sac,[8]; 100 ppm in feed for 5 days,0 Logarithmic number of collected cells per 1 g of tissue
same,Mycoplasma gallisepticum collected in Infraorbital sinus,[8]; 100 ppm in feed for 5 days,0/5
same,Mycoplasma gallisepticum collected in Lung,[8]; 100 ppm in feed for 5 days,0 Logarithmic number of collected cells per 1 g of tissue
same,Mycoplasma gallisepticum collected in Trachea,[8]; 100 ppm in feed for 5 days,0 Logarithmic number of collected cells per 1 g of tissue
same,Chickens developing disease in air sac (naked eye observation),[8]; 100 ppm in feed for 5 days,0
same,No. of dead chickens,[8]; 100 ppm in feed for 5 days,0
